# Reference: patent KR20170078259A, “아이소스테비올을 포함하는 피부상태 개선용 조성물” (주식회사 엘지생활건강, priority 2015, dated 2017)
# Entries after “also recorded” stand apart in the source; their conditions may differ.
# Columns and labels:
# [1] = Anti-glycation (L-arginine and glucose); format: biochemical; conditions: for inhibition rate: 70 °C, 4 h, 420 nm
# [2] = system: B-16 mouse melanoma cell (쥐의 멜라노마 세포); assay: Total melanin increase in B-16 mouse melanoma cells (darkening effect); format: cell-based; conditions: for melanin production: absorbance at 400 nm per 1×10^6 cells
# [3] = biological target: T1, elastase derived from human leukocytes (사람의 백혈구 세포로부터 유래한 엘라스테이즈) (Homo sapiens, UniProt P08246); assay: Elastase activity inhibition (MeOSuc-Ala-Ala-Pro-Val-pNA substrate); format: biochemical; conditions: for elastase activity inhibition (in words): compared with quercetin; for enzyme activity: slope of absorbance at 405 nm
# T1 construct: 사람의 백혈구 세포로부터 유래한 엘라스테이즈를 사용하였고; from tissue; host or cells: human leukocytes
# T1 sequence (P08246 30-267): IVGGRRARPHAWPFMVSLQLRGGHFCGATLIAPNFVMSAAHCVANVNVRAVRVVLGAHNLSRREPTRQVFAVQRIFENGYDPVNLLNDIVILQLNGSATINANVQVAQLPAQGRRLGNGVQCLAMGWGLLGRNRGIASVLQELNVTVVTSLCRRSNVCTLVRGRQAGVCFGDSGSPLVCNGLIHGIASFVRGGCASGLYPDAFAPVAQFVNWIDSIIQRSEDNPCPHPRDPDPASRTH
# [4] = system: human-derived fibroblasts, type I collagen (인간 유래 섬유아세포, 제1형 콜라겐); assay: Type I collagen synthesis promotion in human-derived fibroblasts (PICP EIA kit); format: cell-based
# [5] = 10 ppm, room temperature, 20 min, n = 3, read-out: inhibition rate
smiles,measurement,setting,value
"N=C(N)NN [Aminoguanidine, reference compound]",inhibition rate,"[1]; aminoguanidine positive control, 55 ppm",54.89%
"C=C[C@@]1(C)CC(=O)[C@]2(O)[C@@]3(C)[C@@H](O)CCC(C)(C)[C@@H]3[C@H](O)[C@H](OC(C)=O)[C@@]2(C)O1 [Forskolin, reference compound]",melanin production,"[2]; 10 ppm, 3 days",0.792 abs
same,activation at 10 ppm,"[2]; Mus musculus, 72 h, 10 ppm, 3 days, relative to control, read-out: increase rate (total melanin)",140%
"O=c1c(O)c(-c2ccc(O)c(O)c2)oc2cc(O)cc(O)c12 [Quercetin, reference compound]",inhibition at 10 ppm,[3]; [5],69.2%
"O=C1O[C@H]([C@@H](O)CO)C(O)=C1O [비타민C, reference compound]",activation at 52.85 ppm,"[4]; Homo sapiens, Fibroblast, vitamin C positive control, 52.85 ppm, 48 h, relative to negative control, n = 4, read-out: increase rate (type I collagen production)",64.3%
same,type I collagen production,"[4]; vitamin C positive control, 52.85 ppm, 48 h, n = 4",246.8 ng/mL
"C[C@@]12CC[C@@H]3[C@@](CC[C@H]4[C@@]3(C)CCC[C@@]4(C)C(=O)O)(CC1=O)C2 [화학식 1의 화합물, (4α,8β,13β)-13-Methyl-16-oxo-17-norkauran-18-oic acid]",melanin production,"[2]; 1 ppm, 3 days",0.662 abs
same,total melanin increase effect (in words),"[2]; 10 ppm, compared with forskolin",10 ppm에서도 상당히 우수한 멜라닌 총량 증가 효과
same,melanin production,"[2]; 20 ppm as printed in table, 3 days",0.831 abs
same,activation at 1 ppm,"[2]; Mus musculus, 72 h, 1 ppm, 3 days, relative to control, read-out: increase rate (total melanin)",101%
same,activation at 20 ppm,"[2]; Mus musculus, 72 h, 20 ppm as printed in table, 3 days, relative to control, read-out: increase rate (total melanin)",152%
same,elastase activity inhibition (in words),[3]; 10 ppm,엘라스테이즈 활성 저해 효과가 양성대조군인 퀘르세틴에 상응하는 정도로 높게 나타났으며
same,inhibition at 10 ppm,[3]; [5],55.8%
same,enzyme activity,"[3]; 10 ppm, room temperature, 20 min, n = 3",4.6
same,elastase activity inhibition (in words),[3]; 20 ppm,퀘르세틴보다 우수한 엘라스테이즈 활성 저해 효과가 나타나
same,inhibition at 20 ppm,"[3]; 20 ppm, room temperature, 20 min, n = 3, read-out: inhibition rate",69.2%
same,enzyme activity,"[3]; 20 ppm, room temperature, 20 min, n = 3",3.2
same,inhibition rate,[1]; 25 ppm,51.12%
same,inhibition rate,[1]; 50 ppm,69.22%
same,anti-glycation effect (in words),[1]; compared with aminoguanidine,항당화 효과가 더욱 뛰어남
same,collagen synthesis effect (in words),"[4]; 1 and 10 ppm, compared with vitamin C",농도 의존적으로 콜라겐 합성량이 증가되었고; also recorded: 비타민C를 적용한 경우보다 더 낮은 농도에서 유사한 콜라겐 합성 효과를 나타내었다
same,type I collagen production,"[4]; 1 ppm, 48 h, n = 4",187.6 ng/mL
same,type I collagen production,"[4]; 10 ppm, 48 h, n = 4",265.5 ng/mL
same,activation at 1 ppm,"[4]; Homo sapiens, Fibroblast, 1 ppm, 48 h, relative to negative control, n = 4, read-out: increase rate (type I collagen production)",24.9%
same,activation at 10 ppm,"[4]; Homo sapiens, Fibroblast, 10 ppm, 48 h, relative to negative control, n = 4, read-out: increase rate (type I collagen production)",76.8%
